Laboratory results published in US10426766B2, “Crystalline forms of an 8-azabicyclo[3.2.1]octane compound” (THERAVANCE BIOPHARMA R&D IP, LLC, priority 2007, dated 2019).
Where a name gives a salt, the structure may show the parent alone.

Key:
[1] = system: motility of the gastrointestinal (GI) tract; experiment: Animal models of gastrointestinal motility; format: in vivo
human mu opioid receptor [2] = molecular target: T1, human mu opioid receptor (Homo sapiens, UniProt P35372); experiment: Radioligand binding assay on human mu opioid receptor ([3H]-Diprenorphine displacement, CHO-K1 membranes); details: [3H]-Diprenorphine at 0.5 nM
T1 sequence (P35372 whole entry): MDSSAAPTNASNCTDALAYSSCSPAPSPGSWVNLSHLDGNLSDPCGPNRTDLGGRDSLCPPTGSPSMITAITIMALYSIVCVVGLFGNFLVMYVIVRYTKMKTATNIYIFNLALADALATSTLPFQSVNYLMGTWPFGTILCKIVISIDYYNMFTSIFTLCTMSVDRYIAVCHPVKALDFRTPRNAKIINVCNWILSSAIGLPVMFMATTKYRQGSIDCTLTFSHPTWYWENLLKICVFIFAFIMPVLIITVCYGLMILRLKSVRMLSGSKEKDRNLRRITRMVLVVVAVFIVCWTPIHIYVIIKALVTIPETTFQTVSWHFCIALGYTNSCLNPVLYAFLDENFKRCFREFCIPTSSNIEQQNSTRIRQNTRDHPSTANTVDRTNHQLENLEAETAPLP

[3] = system: loperamide-induced delayed gastric emptying; experiment: Rat gastric emptying assay (reversal of loperamide-induced delayed gastric emptying); format: in vivo; details: administered orally, loperamide 1 mg/kg s.c.
Procedure: In this assay the efficacy of test compounds was evaluated in a model of gastrointestinal transit, which evaluates peripheral activity. This study was approved by the Institutional Animal Care and Use Committee at […]. and conformed to the Guide for the Care and Use of Laboratory Animals published by the National Academy of Sciences (©1996). Test compounds were evaluated in the rat gastric emptying assay to determine their ability to reverse loperamide-induced delayed gastric emptying. Rats were fasted up overnight prior to administration of test compounds or vehicle by intravenous, subcutaneous, intramuscular or oral routes of administration at doses ranging from 0.001 to about 30 milligrams/kilogram (mg/kg). The administration of test compound was followed by subcutaneous administration of loperamide at a dose of 1 mg/kg or vehicle. […] Gastric weight was then determined after removal of the ligatures. Data was analyzed using the GraphPad Prism Software package (GraphPad Software, Inc., San Diego, Calif.). Percent reversal curves were constructed by non-linear regression analysis using the sigmoidal dose response (variable slope) model and best-fit ID50 values were calculated. […]

[4] = Dynamic moisture sorption assessment; format: physicochemical
Procedure: Dynamic moisture sorption (DMS) assessment was performed at 25° C. using a VTI atmospheric microbalance, SGA-100 system (VTI Corp., Hialeah, Fla. 33016). […] A typical DMS analysis consisted of three scans: ambient to 2% relative humidity (RH), 2% RH to 90% RH, 90% RH to 5% RH at a scan rate of 5% RH/step. The mass was measured every two minutes and the RH was changed to the next value (±5% RH) when the mass of the sample was stable to within 0.02% for 5 consecutive points. Representative DMS traces for samples of a crystalline sulfate salt and of a crystalline hydrate of a sulfate salt of compound 1 are shown in FIGS. 3 and 6, respectively.

[5] = Solid state stability assessment; format: physicochemical; details: for changes in DSC, TGA, XRPD results after storage: 4 weeks storage at elevated temperature and humidity
Procedure: Samples of the sulfate salt of the invention were stored in multiple open glass vials at 20° C. and 60% relative humidity (RH) and at 40° C. and 75% RH. At specific intervals, the contents of a representative vial was removed and analyzed by DSC, TGA, PXRD, and by HPLC for chemical purity. […] The chemical purity of the stored samples by HPLC was unchanged at 99.7%.

human mu opioid receptor [6] = molecular target: T1, human mu opioid receptor; experiment: biochemical; details: read-out: intrinsic activity (IA)

Structure (SMILES)	effect on motility of the gastrointestinal tract [1]	Ki (human mu opioid receptor [2])	ID50, dose required for 50% reversal of the effects of loperamide [3]	weight change/gain on moisture sorption (hygroscopicity) ([4]; 2% to 90% relative humidity at room temperature)	deliquescence ([4]; up to about 90% relative humidity at room temperature)	changes in DSC, TGA, XRPD results after storage ([5]; listed as crystalline sulfate salt of compound 1)	changes in DSC, TGA, XRPD results after storage ([5]; listed as sulfate salt of the invention)	chemical purity of the stored samples by HPLC ([5]; 4 weeks storage, open vials, 20° C./60% RH and 40° C./75% RH)	chemical degradation by HPLC ([5]; storage for 4 weeks at 40° C. and 75% relative humidity)	Emax (human mu opioid receptor [6])
NC(=O)c1cccc(C2CC3CCC(C2)N3CCN(CC2CCCCC2)C(=O)[C@@H](O)CO)c1 (stereo partly drawn) [compound 1, 3-endo-(8-{2-[cyclohexylmethyl-((S)-2,3-dihydroxy-propionyl)amino]ethyl}-8-aza-bicyclo[3.2.1]oct-3-yl)benzamide]	increase motility of the gastrointestinal (GI) tract									
NC(=O)c1cccc(C2CC3CCC(C2)N3CCN(CC2CCCCC2)C(=O)[C@@H](O)CO)c1 (stereo partly drawn) [sulfate salt of compound 1, 3-endo-(8-{2-[cyclohexylmethyl-((S)-2,3-dihydroxy-propionyl)amino]ethyl}-8-aza-bicyclo[3.2.1]oct-3-yl)benzamide sulfate]		126 pM	0.26 mg/kg	less than 0.3%	neither the crystalline sulfate salt of the invention nor the hydrate thereof is deliquescent	no detectable changes	no detectable change	99.7%	no chemical degradation	-5%
